IC50 and Kd data for 15 molecules are collected here from patent US8759520B2, “Compounds for treating cancer” (Boehringer Ingelheim International GmbH, priority 2008, dated 2014).

Assay [1] has as its target T1, Bcl-2 (Homo sapiens, UniProt P10415). Kind of assay: Homogeneous HTS assay for inhibitors of the Bcl-2 : Bak (72-87) BH3 domain interaction, fluorescence polarisation (2D-FIDA). It is filed as binding. The note with it: fluorescence polarisation, fluorescent labelled Bak BH3 domain derived peptide; read-out: IC50 [μM] Bcl-2.
The target in assay [2] is T1, Bcl-2. The conditions noted are these: reported by Wang and co-workers; read-out: equilibrium binding constant KD to Bcl-2 protein; cited from earlier work.

T1 sequence (P10415 whole entry, species assumed, the tested form may be a part): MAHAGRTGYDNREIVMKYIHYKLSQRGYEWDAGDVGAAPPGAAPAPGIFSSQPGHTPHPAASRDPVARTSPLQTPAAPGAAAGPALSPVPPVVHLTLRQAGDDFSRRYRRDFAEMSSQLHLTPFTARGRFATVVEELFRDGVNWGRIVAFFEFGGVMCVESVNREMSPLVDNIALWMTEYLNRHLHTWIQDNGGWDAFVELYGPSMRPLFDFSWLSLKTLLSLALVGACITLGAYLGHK

By IC50 is commonly meant the concentration needed to halve the response being measured. For the molecule `CCCCn1c(=N)n(CC(O)COc2ccccc2OC)c2ccccc21` (stereo not drawn) [Compound 93, 1-(3-Butyl-2-imino-2,3-dihydro-benzoimidazol-1-yl)-3-(2-methoxy-phenoxy)-propan-2-ol], in assay [1], the IC50 was above 100 µM.

As for `Cc1ccccc1Cn1c(=N)n(CCCOc2ccccc2)c2ccccc21` [Compound 94, 1-(2-Methyl-benzyl)-3-(3-phenoxy-propyl)-1,3-dihydro-benzoimidazol-2-ylideneamine], in assay [1], the IC50 was 11 to 100 µM.

Regarding `COc1ccccc1OCCn1c(=N)n(Cc2ccccc2)c2ccccc21` [Compound 95, 1-Benzyl-3-[2-(2-methoxy-phenoxy)-ethyl]-1,3-dihydro-benzoimidazol-2-ylideneamine], the IC50 in assay [1] was in the range of 11 to 100 µM.

Consider `N=c1n(CCCOc2ccccc2)c2ccccc2n1Cc1ccccc1F` [Compound 96, 1-(2-Fluoro-benzyl)-3-(3-phenoxy-propyl)-1,3-dihydro-benzoimidazol-2-ylideneamine], for which, in assay [1], the IC50 fell in the range of 11 to 100 µM.

With `N=c1n(CCCOc2ccc(F)cc2)c2ccccc2n1Cc1ccccc1` [Compound 97, 1-Benzyl-3-[3-(4-fluoro-phenoxy)-propyl]-1,3-dihydro-benzoimidazol-2-ylideneamine], the IC50 in assay [1] lay within 11 to 100 µM.

Consider `CCCCCn1c(=N)n(CC(O)COc2ccccc2OC)c2ccccc21` (stereo not drawn) [Compound 98, 1-(2-Imino-3-pentyl-2,3-dihydro-benzoimidazol-1-yl)-3-(2-methoxy-phenoxy)-propan-2-ol], for which, in assay [1], the IC50 fell in the range of 11 to 100 µM.

With `Cc1ccc(OCC(O)Cn2c(=N)n(Cc3ccccc3)c3ccccc32)cc1` (stereo not drawn) [Compound 99, 1-(3-Benzyl-2-imino-2,3-dihydro-benzoimidazol-1-yl)-3-p-tolyloxy-propan-2-ol], the IC50 in assay [1] lay in the range of 11 to 100 µM.

With `Cc1ccc(Cn2c(=N)n(CC(O)COc3ccccc3)c3ccccc32)cc1` (stereo not drawn) [Compound 100, 1-[2-Imino-3-(4-methyl-benzyl)-2,3-dihydro-benzoimidazol-1-yl]-3-phenoxy-propan-2-ol], the IC50 in assay [1] lay within 11 to 100 µM.

Take `CCCCCCn1c(=N)n(CC(O)COc2ccccc2OC)c2ccccc21` (stereo not drawn) [Compound 101, 1-(3-Hexyl-2-imino-2,3-dihydro-benzoimidazol-1-yl)-3-(2-methoxy-phenoxy)-propan-2-ol]: the half-maximal inhibitory concentration (IC50) in assay [1] is 11 to 100 µM.

`N=c1n(Cc2ccccc2Cl)c2ccccc2n1CC(O)COc1ccccc1` (stereo not drawn) [Compound 102, 1-[3-(2-Chloro-benzyl)-2-imino-2,3-dihydro-benzoimidazol-1-yl]-3-phenoxy-propan-2-ol]: in assay [1], the IC50 is above 100 µM.

As for `N=c1n(Cc2ccc(Cl)cc2)c2ccccc2n1CC(O)COc1ccccc1` (stereo not drawn) [Compound 103, 1-[3-(4-Chloro-benzyl)-2-imino-2,3-dihydro-benzoimidazol-1-yl]-3-phenoxy-propan-2-ol], the concentration for half-maximal inhibition (IC50) in assay [1] lay within 11 to 100 µM.

On to `CC(C)(C)c1ccc(Cn2c(=N)n(CC(O)COc3ccccc3)c3ccccc32)cc1` (stereo not drawn) [Compound 104, 1-[3-(4-tert-Butyl-benzyl)-2-imino-2,3-dihydro-benzoimidazol-1-yl]-3-phenoxy-propan-2-ol], for which the half-maximal inhibitory concentration (IC50) in assay [1] was 11 to 100 µM.

For the molecule `N=c1n(Cc2ccc(Cl)cc2)c2ccccc2n1CC(O)COc1ccc(Cl)cc1` (stereo not drawn) [Compound 105, 1-[3-(4-Chloro-benzyl)-2-imino-2,3-dihydro-benzoimidazol-1-yl]-3-(4-chloro-phenoxy)-propan-2-ol], the IC50 in assay [1] fell in the range of 11 to 100 µM.

For `N=c1n(Cc2ccccc2)c2ccccc2n1CC(O)COc1ccc(Cl)cc1Cl` (stereo not drawn) [Compound 106, 1-(3-Benzyl-2-imino-2,3-dihydro-benzoimidazol-1-yl)-3-(2,4-dichloro-phenoxy)-propan-2-ol], in assay [1], the IC50 was 11 to 100 µM.

By Kd is commonly meant the equilibrium constant for the complex coming apart. In the case of “BH3 domain derived peptide ligand, sequence GQVGRQLAIIGDDINR, fluorescently labelled for the assay”, the Kd in assay [2] is around 0.2 µM.
